This is an account of results in US20220151935A1, “USE OF AMINO ACID BASED NUTRIENTS AND PHARMACEUTICAL COMPOSITION CONTAINING THE SAME” (priority 2018, published 2022).

The test system of one assay is breast cancer 4T1 cells. The assay is described as follows: Tumor weight and tumor inhibition in BALB/c mice bearing breast cancer 4T1 cells.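 For all read-outs here: subcutaneous grafts in the right axilla, tumors excised and weighed after euthanasia, inhibition rate derived from group mean tumor weight versus the negative control group.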 The settings on record: for Tumor inhibition rate / Tumor weight (x ± s) / Tumor weight: intratumoral 150 μl/mouse every 3 days x3; for Intratumoral injection Tumor inhibition rate / Intratumoral injection Tumor weight: Table 10, avg tumor volume 336 mm^3, 150 μl/mouse every 3 days x3, 5th day after last dose.

Assay [1] concerns human liver cancer cells (HepG2). The assay is described as follows: Tumor weight and tumor inhibition in nude mice bearing HepG2. The assay is classed as in vivo. The settings on record: for Intratumoral injection Tumor inhibition rate / Intratumoral injection Tumor weight / Tumor inhibition rate of intraperitoneal injection: 5th day after last dose. The protocol:
One of the core characteristics of tumors is heterogeneity. […] The corresponding negative control was normal saline.
(§1) They were injected intraperitoneally and intratumorally.
The negative control group was given normal saline. The compositions of the study drug are as shown in the table below: 4 types and concentrations of amino acid based nutrient single drugs (X % amino acid based nutrients), 18 types and concentrations of ineffective absorption drugs (Y % ineffective absorption drugs), 24 compositions comprising various types and concentrations of amino acid based nutrients and ineffectively absorption drugs (X % amino acid based nutrients/Y % ineffectively absorption drugs).
The negative control was normal saline. The compositions of 16 study drugs, as shown in the table below, comprise: a 5-fluorouracil single drug of 4 varying concentrations (X % 5-fluorouracil), and an amino acid based nutrient with 5 varying concentrations (Y % amino acid based nutrient), 7 compositions consisting of 5-fluorouracil of varying concentrations and an amino acid based nutrient of varying concentrations (X % 5-fluorouracil/Y % amino acid based nutrient). […] The dose at each time was: 5-fluorouracil 50 mg/kg, glutathione ≤1 g/kg, and an injection volume was ≤150 μl/mouse.
The negative control was normal saline, the positive control was 1% 5-fluorouracil, and the study drug was 1% methylene blue/10% amino acid based nutrient composition (the type of the amino acid based nutrient is variable). The amino acid based nutrients in the compositions used in study groups 1-13 were: arginine, glycine, cysteine hydrochloride, valine, threonine, proline, histidine hydrochloride, phenylalanine, lysine, leucine, alanine, glutathione, serine, and the study drug used in the study group 14 was 1% methylene blue/5% arginine/5% glycine.

The subject of assay [2] is pancreatic cancer cells PANC-1. The assay is described as follows: Tumor inhibition in nude mice bearing pancreatic cancer cells PANC-1. The assay is classed as in vivo. The settings on record: for Tumor inhibition rate: Table 4, avg tumor volume 136 mm^3, intratumoral every 3 days x3, ≤150 μl, next day; for Tumor inhibition rate of intraperitoneal injection / Tumor inhibition rate of intratumoral injection: Table 3, avg tumor volume 105 mm^3, 100 μl/mouse every 3 days x3, next day after last dose. The protocol:
as §1
After anatomy, the tumor weight was measured and the tumor inhibition rate was calculated.

Setting [3] is: Table 12, avg tumor volume 317 mm^3, 5th day.
Setting [4] is: Table 11, avg tumor volume 164 mm^3, intratumoral every 3 days x3, ≤150 μl, fifth day after last dose.
[5] abbreviates: Table 8, avg tumor volume 175 mm^3, ≤150 μl/mouse every 3 days x3.
Setting [6] is: Table 16, avg tumor volume 169 mm^3, intratumoral every 3 days x3, ≤150 μl/mouse, 5th day.
[7] abbreviates: Table 6, avg tumor volume 153 mm^3, ≤120 μl/mouse every 3 days x3.
Setting [8] is: Table 14, avg tumor volume 325 mm^3, 5th day.
Setting [9] is: Table 17, avg tumor volume 317 mm^3, fifth day.

Marks after values point to notes of the source that are not given here.

Method for breast cancer 4T1 cells: In the following examples, unless otherwise specified, animal tests of subcutaneous transplantation tumors were performed in accordance with test guidelines issued by a drug administration authority. […] The subcutaneous transplantation was carried out according to a conventional method for subcutaneous inoculation of tumor cells. […] Items to be observed, measured and analyzed in the experiments included general status, body weight, food intake, tumor volume, tumor weight, thymus weight, spleen weight, and the like.
The tumor growth inhibition rate (abbreviated as tumor inhibition rate in the present invention) is calculated through the following equation:
wherein TW is an average tumor weight of a study group; CW is an average tumor weight of a negative control group.
The effects of the co-use of drugs (including efficacy and safety) can theoretically be based on the judgment of q:
q=actual combined effect/theoretical expected effect of simple addition.
When q=1, the actual combined effect meets the theoretical expectation, showing an additive effect; when q<1, the actual combined effect is weaker than the theoretical expectation, showing an antagonistic effect; and when q>1, the actual combined effect exceeds the theoretical expectation, showing a synergic effect. Unless otherwise specified, single-use efficacy of A or B (denoted as EA and EB respectively) and the actual combined efficacy of A/B (denoted as EA+B) are both tumor inhibition rates.
In one experiment, the test animal was a BALB/c mouse, the modeling cells were breast cancer 4T1 cells, and the transplantation tumor was modeled at 1×10^6 cells/mouse under the skin of the animal's right axilla. […] The experimental groups were divided into 1 negative control group (group 0) and 13 study groups (groups 1-13). They were all injected intratumorally. […] Each group was administered once every 3 days for a total of 3 times, each time at an injection dose of 150 μl//mouse. During the administration, general state of the animals and the degree of necrosis of normal tissues around the tumor after the administration were observed. On the 5th day after the administration was ended, the animals were euthanized, and the tumor weight was measured after anatomy to the animals. The tumor inhibition rate was calculated from the negative control group of each administration mode.
In another experiment, the test animal was a BALB/c mouse, the modeling cells were breast cancer 4T1 cells, and the transplantation tumor was modeled at 1×10^6 cells/mouse under the skin of the animal's right axilla. […] Each group was administered by intratumoral injection once every 3 days for a total of 3 times, each time at an injection dose of 150 μl/mouse. On the 5th day after the administration was ended, the animals were euthanized, and the tumor weight was measured after anatomy to the animals. The tumor inhibition rate was calculated from the negative control group.
In another experiment, the test animal was BALB/c mice, the modeling cells were breast cancer 4T1 cells, and the transplantation tumor was modeled at 1×10^6 cells/mouse under the skin of the animal's right axilla. […] Each group was administered by intratumoral injection once every 3 days for a total of 3 times, each time at an injection dose of 150 μl/mouse. On the 5th day after the administration was ended, the animals were euthanized, and the tumor weight was measured after anatomy to the animals. The tumor inhibition rate was calculated from the negative control group.
In another experiment, the test animal was a BALB/c mouse, the modeling cells were breast cancer 4T1 cells, and the transplantation tumor under the skin of the animal's right axilla was modeled at 1×10^6 cells/mouse.

Regarding `[Na+].[OH-]` [7% NaOH, sodium hydroxide], in the assay with breast cancer 4T1 cells (setting [3]), the Tumor inhibition rate is 75% and the “Tumor weight (x ± s)” value is 0.59 g. Regarding `O=C1OC2(c3cc(I)c(O)c(I)c3Oc3c2cc(I)c(O)c3I)c2c(Cl)c(Cl)c(Cl)c(Cl)c21` [10% Bengal Red, Bengal Red], the Tumor inhibition rate entry in assay [1] (setting [4]) is “(63%)”. Take `CC(=O)O` [10% acetic acid, acetic acid]: in the assay on breast cancer 4T1 cells, the “Intratumoral injection Tumor inhibition rate” value is reported as 53% and the “Intratumoral injection Tumor weight” value is given as 0.60 ± 0.21 g.

In assay [2], `N[C@@H](CCC(=O)N[C@@H](CS)C(=O)NCC(=O)O)C(=O)O` [7.5% glutathione, Reduced glutathione] showed a Tumor inhibition rate of 45%.

`N=C(N)NCCC[C@H](N)C(=O)O` [1% arginine, L-arginine] showed a Tumor inhibition rate in assay [2] of 17%. With `[Na+].[OH-]` [0.5% NaOH, sodium hydroxide], in the assay on breast cancer 4T1 cells (setting [3]), the Tumor inhibition rate is given as 31% and the “Tumor weight (x ± s)” value worked out at 1.54 g.

`N[C@@H](CCC(=O)N[C@@H](CS)C(=O)NCC(=O)O)C(=O)O` [2% glutathione, Reduced glutathione] came in with a Tumor inhibition rate in assay [2] of 13%. On to `Cl.N[C@@H](CCC(=O)O)C(=O)O` [0.15% glutamic hydrochloride, L-glutamic hydrochloride], for which, in assay [2] (hydrochloride), the Tumor inhibition rate stood at 16%. Consider `CC(=O)O` [20% acetic acid, acetic acid], for which the Tumor inhibition rate entry in assay [1] (setting [4]) is reported as “(92%)**”. The same measure, in the same setting: the value for `CN(C)c1ccc2nc3ccc(=[N+](C)C)cc-3sc2c1` [0.35% methylene blue, Methylene blue] was “(18%)”. On to `NCC(=O)O` [20% glycine, Glycine], for which, in assay [2], the “Tumor inhibition rate of intraperitoneal injection” value came to 52% and the “Tumor inhibition rate of intratumoral injection” value is 4%. Besides, in assay [1] (setting [5]), the “Intratumoral injection Tumor inhibition rate” value came to 54%, the “Intratumoral injection Tumor weight” value is 1.17 ± 0.28 g and the “Tumor inhibition rate of intraperitoneal injection” value is 2%. Further, in the assay with breast cancer 4T1 cells, the “Intratumoral injection Tumor inhibition rate” value is recorded as 18% and the “Intratumoral injection Tumor weight” value was 1.05 ± 0.32 g. Regarding `N[C@@H](CCC(=O)N[C@@H](CS)C(=O)NCC(=O)O)C(=O)O` [5% glutathione, Reduced glutathione], the Tumor inhibition rate is 32% in assay [2], “(31%)” in assay [1] (setting [4]) and “(32%)” in assay [1] (setting [6]). For the compound `Cl` [2% hydrochloric acid, hydrochloric acid], the Tumor inhibition rate entry in assay [1] (setting [4]) is given as “(83%)”. Take `N[C@@H](CCC(=O)N[C@@H](CS)C(=O)NCC(=O)O)C(=O)O` [2.5% glutathione, Reduced glutathione]: the Tumor inhibition rate entry in assay [1] (setting [4]) is “(12%)*”; in assay [1] (setting [6]), “(12%)”. Compound `N[C@@H](CCC(=O)N[C@@H](CS)C(=O)NCC(=O)O)C(=O)O` [3% glutathione, Reduced glutathione] gave a Tumor inhibition rate in assay [2] of 12%. With `Cl` [0.25% hydrochloric acid, hydrochloric acid], the Tumor inhibition rate entry in assay [1] (setting [4]) is reported as “(31%)”. In assay [2], `N[C@@H](CCC(=O)N[C@@H](CS)C(=O)NCC(=O)O)C(=O)O` [1% glutathione, Reduced glutathione] registered a Tumor inhibition rate of 11%. With `CC/C=C\C/C=C\C/C=C\C/C=C\C/C=C\C/C=C\CCC(=O)O` [3% DHA, Docosahexaenoic acid (DHA)], the Tumor inhibition rate entry in assay [1] (setting [4]) was “(21%)”. The same measure, in the same setting: the value for `Cl` [1% hydrochloric acid, hydrochloric acid] was “(68%)”. `CC(=O)O` [3.5% acetic acid, acetic acid]: in assay [1] (setting [7]), the “Intratumoral injection Tumor inhibition rate” value worked out at 64%, the “Intratumoral injection Tumor weight” value came to 0.84 ± 0.23 g and the “Tumor inhibition rate of intraperitoneal injection” value is given as 6%.

For `[Cl-].[K+]` [2% KCl, potassium chloride], in the assay with breast cancer 4T1 cells (setting [8]), the Tumor inhibition rate turned out to be 11% and the “Tumor weight (x ± s)” value was determined as 2.19 ± 0.31 g. For the compound `Cl.N[C@@H](CCC(=O)O)C(=O)O` [5% glutamic hydrochloride, L-glutamic hydrochloride], in assay [2] (hydrochloride), the Tumor inhibition rate is 76%. Take `N=C(N)NCCC[C@H](N)C(=O)O` [5% arginine, L-arginine]: the Tumor inhibition rate is 16% in assay [2] and 10% in the assay with breast cancer 4T1 cells (setting [9]). Moreover, in the assay with breast cancer 4T1 cells (setting [9]), the Tumor weight is given as 1.40 ± 0.26 g. Turning to `CC(=O)O` [2% acetic acid, acetic acid], the Tumor inhibition rate result in assay [1] (setting [4]) was “(46%)”. In assay [2] (hydrochloride), `Cl.N[C@@H](CCC(=O)O)C(=O)O` [0.25% glutamic hydrochloride, L-glutamic hydrochloride] returned a Tumor inhibition rate of 13%. The compound `N=C(N)NCCC[C@H](N)C(=O)O` [3% arginine, L-arginine] showed a Tumor inhibition rate in assay [2] of 19%. Regarding `CC/C=C\C/C=C\C/C=C\C/C=C\C/C=C\C/C=C\CCC(=O)O` [5% DHA, Docosahexaenoic acid (DHA)], in assay [1] (setting [7]), the “Intratumoral injection Tumor inhibition rate” value was 27%, the “Intratumoral injection Tumor weight” value was 1.69 ± 0.33 g and the “Tumor inhibition rate of intraperitoneal injection” value is on record as 4%. Further, the Tumor inhibition rate result in assay [1] (setting [4]) is reported as “(28%)”. On to `Cl.N[C@@H](CCC(=O)O)C(=O)O` [0.5% glutamic hydrochloride, L-glutamic hydrochloride], for which, in assay [2] (hydrochloride), the Tumor inhibition rate is listed as 11%. As for `NCCCC[C@H](N)C(=O)O` [20% lysine, L-lysine], in assay [2], the “Tumor inhibition rate of intraperitoneal injection” value is 53% and the “Tumor inhibition rate of intratumoral injection” value is listed as 1%. `O=c1[nH]cc(F)c(=O)[nH]1` [1.5% 5-fluorouracil, 5-fluorouracil]: in assay [1] (setting [6]), the Tumor inhibition rate entry is reported as “(69%)”. `N=C(N)NCCC[C@H](N)C(=O)O` [7.5% arginine, L-arginine] registered a Tumor inhibition rate in assay [2] of 21%. As to `O=c1[nH]cc(F)c(=O)[nH]1` [0.5% 5-fluorouracil, 5-fluorouracil], the Tumor inhibition rate entry in assay [1] (setting [6]) was “(59%)*”. In assay [2], `N[C@@H](CCC(=O)N[C@@H](CS)C(=O)NCC(=O)O)C(=O)O` [12.5% glutathione, Reduced glutathione] returned a Tumor inhibition rate of 66%. For the compound `N=C(N)NCCC[C@H](N)C(=O)O` [4% arginine, L-arginine], in the assay with breast cancer 4T1 cells (setting [3]), the Tumor inhibition rate worked out at 2% and the “Tumor weight (x ± s)” value came to 2.31 g. As to `CN(C)c1ccc2nc3ccc(=[N+](C)C)cc-3sc2c1` [0.25% methylene blue, Methylene blue], in assay [1] (setting [4]), the Tumor inhibition rate result was “(11%)”. In the assay with breast cancer 4T1 cells (setting [9]), `N=C(N)NCCC[C@H](N)C(=O)O` [2.5% arginine, L-arginine] gave a Tumor inhibition rate of 5% and a Tumor weight of 1.48 ± 0.32 g. On to `Cl.N[C@@H](CCC(=O)O)C(=O)O` [2% glutamic hydrochloride, L-glutamic hydrochloride], for which the Tumor inhibition rate in assay [2] (hydrochloride) is listed as 49%.

For the compound `Cl` [0.5% hydrochloric acid, hydrochloric acid], in assay [1] (setting [4]), the Tumor inhibition rate entry was “(53%)”. Still for that read-out and setting: with `CC(=O)O` [1% acetic acid, acetic acid] the entry was “(26%)”. `CN(C)c1ccc2nc3ccc(=[N+](C)C)cc-3sc2c1` [0.7% methylene blue, Methylene blue]: in assay [1] (setting [7]), the “Intratumoral injection Tumor inhibition rate” value was 13%, the “Intratumoral injection Tumor weight” value is listed as 2.02 ± 0.31 g and the “Tumor inhibition rate of intraperitoneal injection” value is recorded as 2%.

For `N=C(N)NCCC[C@H](N)C(=O)O` [2% arginine, L-arginine], in assay [2], the Tumor inhibition rate was found to be 15%.

Regarding `O=C1OC2(c3cc(I)c(O)c(I)c3Oc3c2cc(I)c(O)c3I)c2c(Cl)c(Cl)c(Cl)c(Cl)c21` [5% Bengal Red, Bengal Red], the Tumor inhibition rate result in assay [1] (setting [4]) is given as “(46%)”.

Take `Cl.N[C@@H](CCC(=O)O)C(=O)O` [1% glutamic hydrochloride, L-glutamic hydrochloride]: the Tumor inhibition rate in assay [2] (hydrochloride) was determined as 18%.

For the compound `O=c1[nH]cc(F)c(=O)[nH]1` [0.75% 5-fluorouracil, 5-fluorouracil], the Tumor inhibition rate entry in assay [1] (setting [6]) is “(63%)”.
